# Assay results from US10251871B2, “Compositions and methods for treatment of edema” (Memorial Sloan Kettering Cancer Center, priority 2015, dated 2019).
# Columns and labels:
# [1] = Tacrolimus blood level by mass spectrometry; assay type: in vivo, mice
# Experimental: Blood levels of tacrolimus were measured using mass spectrometry in a modification of a previously reported method. Donaldson et al., Meth. Mol. Biol. 603:479-487 (2010). Briefly, whole blood was collected in sodium EDTA-coated tubes (Terumo, Shibuya, Japan) and then analyzed using a Thermo Scientific Aria TLX-2 turbulent flow chromatograph (TFC) coupled to a TSQ Quantum Ultra triple quadrupole mass spectrometer (Thermo Scientific, Franklin, Mass.). The TurboFlow column used was a Cyclone P-50×0.5 mm while the analytical column was a Hypersil Gold C-18 column, 3×50 mm. To whole blood (50 μL) was added 200 μL of 0.2 mM ZnSO4 containing ascomycin as an internal standard. Following a 30 minute incubation and centrifugation, 50 μL of the supernatant was injected into the TFC system. The analytes were eluted through the column (0.75 mL min^−1) with a gradient of water and methanol solutions containing 10 mM ammonium formate and 0.1% formic acid. The analytical run time was 4.5 minutes. The between-day imprecision of the assay was determined at three concentrations over a period of 10 days. At concentrations of 3.3, 12.6 and 31.9 ng mL^−1 the coefficients of variation were of 9.8, 7.0 and 7.8%, respectively. The assay has a linear range from 0 to 40 ng mL^−1.
# [2] = reference range; cited from earlier work
# [3] = test system: hind limb collecting lymphatics of non-operated animals; assay: Non-operated (sham) hind limb, NIR lymphatic imaging; assay type: in vivo, mice; conditions: tacrolimus, non-operated animals (anesthesia only, no surgery)
# Source text: Upper panels are representative images of NIR lymphatic images of the hind limb lymphatics in sham operated mice (i.e., anesthesia without incision or PLND) following treatment with control or topical tacrolimus for 2 weeks. Quantification of collecting lymphatic vessel pulsation frequency following 3 or 14 days of treatment with tacrolimus is shown below.
# This is important since previous studies have shown that perilymphatic iNOS expression is an important regulator of collecting lymphatic pumping capacity. Liao et al., Proc. Natl. Acad. Sci. USA 108:18784-18789 (2011).
# [4] = test system: corneal lymphatic and blood vessels; assay: Corneal lymphangiogenesis assay (suture placement); assay type: in vivo, mice; conditions: systemic tacrolimus 4 mg kg^−1 IP daily for 2 weeks after suture placement, vs vehicle
# Source text: To determine the lymphangiogenic effects of tacrolimus in other inflammatory and wound models in which drainage of lymphatic fluid is not obstructed surgically, we next used two other models of inflammatory lymphangiogenesis. The cornea is a useful tissue for studying lymphangiogenesis because it is normally devoid of both blood and lymphatic vessels but develops both in the setting of inflammation. Cursiefen et al., J. Clin. Invest. 113:1040-1050 (2004). […] A corneal lymphangiogenesis assay was performed as previously reported. Cursiefen et al., Cornea 25:443-447 (2006). Briefly, 10-0 nylon sutures (Ethicon, Cincinnati, Ohio) were placed in the cornea at […]. Beginning immediately after suture placement, animals were treated with systemic tacrolimus or vehicle control daily for two weeks, followed by analysis using confocal microscopy (Leica Microsystems, Weitziar, Germany). […] Cutaneous lymphangiogenesis was assessed using an ear punch wound model as previously reported. […] Tile-scan images were obtained using a confocal microscope (Leica Microsystems, Weitziar, Germany) and skin within 400 μm of the wound edge was analyzed using Metamorph software (Molecular Devices, Sunnyvale, Calif.). Standardized (200 μm×200 μm) fields were analyzed for the number of branch points present per unit area by two blinded reviewers.
smiles,measurement,setting,value
C=CC[C@@H]1/C=C(\C)C[C@H](C)C[C@H](OC)[C@H]2O[C@@](O)(C(=O)C(=O)N3CCCC[C@H]3C(=O)O[C@H](/C(C)=C/[C@@H]3CC[C@@H](O)[C@H](OC)C3)[C@H](C)[C@@H](O)CC1=O)[C@H](C)C[C@@H]2OC [tacrolimus],whole blood tacrolimus levels,[1]; systemic tacrolimus 4 mg kg^−1 IP daily,immunosuppressive concentrations
same,"whole blood tacrolimus level (systemic absorption), mean value",[1]; topical tacrolimus,1.06 ng/mL
same,known therapeutic immunosuppressive levels achieved with systemic administration,[2],5 to 15 ng/mL
same,lymphatic contraction frequency,[3],did not increase
same,perilymphatic accumulation of inflammatory cells,[3],did not increase
same,increase in proliferation of corneal lymphatic vessels (LYVE-1+),[4],48%
